Literature values in patent US12357536B2, “Containers with selective dissolved gas content” (BAXTER INTERNATIONAL INC., priority 2021, dated 2025).
Where two headings read alike, the source gives them in different places.

Conditions: cited from earlier work; for Solubility of oxygen: 760 mm Hg, salinity 0.0 ppt

O=O [oxygen]
Solubility of oxygen (3.0 °C): 13.445 ppm
Solubility of oxygen (3.2 °C): 13.374 ppm
Solubility of oxygen (3.4 °C): 13.303 ppm
Solubility of oxygen (3.6 °C): 13.233 ppm
Solubility of oxygen (3.8 °C): 13.163 ppm
Solubility of oxygen (4.0 °C): 13.094 ppm
Solubility of oxygen (4.2 °C): 13.025 ppm
Solubility of oxygen (4.4 °C): 12.957 ppm
Solubility of oxygen (4.6 °C): 12.890 ppm
Solubility of oxygen (4.8 °C): 12.823 ppm
Solubility of oxygen (5.0 °C): 12.757 ppm
Solubility of oxygen (5.2 °C): 12.692 ppm
Solubility of oxygen (5.4 °C): 12.627 ppm
Solubility of oxygen (5.6 °C): 12.563 ppm
Solubility of oxygen (5.8 °C): 12.499 ppm
Solubility of oxygen (6.0 °C): 12.436 ppm
Solubility of oxygen (6.2 °C): 12.373 ppm
Solubility of oxygen (6.4 °C): 12.311 ppm
Solubility of oxygen (6.6 °C): 12.249 ppm
Solubility of oxygen (6.8 °C): 12.188 ppm
Solubility of oxygen (7.0 °C): 12.127 ppm
Solubility of oxygen (7.2 °C): 12.067 ppm
Solubility of oxygen (7.4 °C): 12.008 ppm
Solubility of oxygen (7.6 °C): 11.949 ppm
Solubility of oxygen (7.8 °C): 11.980 ppm
Solubility of oxygen (8.0 °C): 11.832 ppm
Solubility of oxygen (8.2 °C): 11.774 ppm
Solubility of oxygen (8.4 °C): 11.717 ppm
Solubility of oxygen (8.6 °C): 11.661 ppm
Solubility of oxygen (8.8 °C): 11.604 ppm
Solubility of oxygen (9.0 °C): 11.549 ppm
Solubility of oxygen (9.2 °C): 11.493 ppm
Solubility of oxygen (9.4 °C): 11.439 ppm
Solubility of oxygen (9.6 °C): 11.384 ppm
Solubility of oxygen (9.8 °C): 11.331 ppm
Solubility of oxygen (10.0 °C): 11.277 ppm
Solubility of oxygen (10.2 °C): 11.224 ppm
Solubility of oxygen (10.4 °C): 11.172 ppm
Solubility of oxygen (10.6 °C): 11.119 ppm
Solubility of oxygen (10.8 °C): 11.068 ppm
Solubility of oxygen (11.0 °C): 11.016 ppm
Solubility of oxygen (11.2 °C): 10.995 ppm
Solubility of oxygen (11.4 °C): 10.915 ppm
Solubility of oxygen (11.6 °C): 10.865 ppm
Solubility of oxygen (11.8 °C): 10.815 ppm
Solubility of oxygen (12.0 °C): 10 766 ppm
Solubility of oxygen (12.2 °C): 10.717 ppm
Solubility of oxygen (12.4 °C): 10.669 ppm
Solubility of oxygen (12.6 °C): 10.620 ppm
Solubility of oxygen (12.8 °C): 10.573 ppm
Solubility of oxygen (13.0 °C): 10.525 ppm
Solubility of oxygen (13.2 °C): 10.478 ppm
Solubility of oxygen (13.4 °C): 10.432 ppm
Solubility of oxygen (13.6 °C): 10.386 ppm
Solubility of oxygen (13.8 °C): 10.340 ppm
Solubility of oxygen (14.0 °C): 10.294 ppm
Solubility of oxygen (14.2 °C): 10.249 ppm
Solubility of oxygen (14.4 °C): 10.204 ppm
Solubility of oxygen (14.6 °C): 10.160 ppm
Solubility of oxygen (14.8 °C): 10.115 ppm
Solubility of oxygen (15.0 °C): 10.072 ppm
Solubility of oxygen (15.2 °C): 10.028 ppm
Solubility of oxygen (15.4 °C): 9.985 ppm
Solubility of oxygen (15.6 °C): 9.942 ppm
Solubility of oxygen (15.8 °C): 9.900 ppm
Solubility of oxygen (16.0 °C): 9.858 ppm
Solubility of oxygen (16.2 °C): 9.816 ppm
Solubility of oxygen (16.4 °C): 9.774 ppm
Solubility of oxygen (16.6 °C): 9.733 ppm
Solubility of oxygen (16.8 °C): 9.692 ppm
Solubility of oxygen (17.0 °C): 9.651 ppm
Solubility of oxygen (17.2 °C): 9.611 ppm
Solubility of oxygen (17.4 °C): 9.571 ppm
Solubility of oxygen (17.6 °C): 9.531 ppm
Solubility of oxygen (17.8 °C): 9.492 ppm
Solubility of oxygen (18.0 °C): 9.453 ppm
Solubility of oxygen (18.2 °C): 9.414 ppm
Solubility of oxygen (18.4 °C): 9.375 ppm
Solubility of oxygen (18.6 °C): 9.337 ppm
Solubility of oxygen (18.8 °C): 9.299 ppm
Solubility of oxygen (19.0 °C): 9.261 ppm
Solubility of oxygen (19.2 °C): 9.224 ppm
Solubility of oxygen (19.4 °C): 9.187 ppm
Solubility of oxygen (19.6 °C): 9.150 ppm
Solubility of oxygen (19.8 °C): 9.113 ppm
Solubility of oxygen (20.0 °C): 9.077 ppm
Solubility of oxygen (20.2 °C): 9.040 ppm
Solubility of oxygen (20.4 °C): 9.004 ppm
Solubility of oxygen (20.6 °C): 8.969 ppm
Solubility of oxygen (20.8 °C): 8.933 ppm
Solubility of oxygen (21.0 °C): 8.989 ppm
Solubility of oxygen (21.2 °C): 8.863 ppm
Solubility of oxygen (21.4 °C): 8.829 ppm
Solubility of oxygen (21.6 °C): 8.794 ppm
Solubility of oxygen (21.8 °C): 8.760 ppm
Solubility of oxygen (22.0 °C): 8.726 ppm
Solubility of oxygen (22.2 °C): 8.693 ppm
Solubility of oxygen (22.4 °C): 8.659 ppm
Solubility of oxygen (22.6 °C): 8.626 ppm
Solubility of oxygen (22.8 °C): 8.583 ppm
DO concentration of a solution saturated with oxygen (about room temperature (approx.) 21° C): about 8 ppm
